Several values for one entry are separate records, joined by “and”; a condition that tells them apart may be missing. Equal values may be shown once. Read-outs that look alike come from different tables or passages of the source. Marks after values point to notes of the source that are not given here.
Test: Phase 1 crossover PK study: oral solution fed/fasted vs IV infusion in healthy subjects
Assay type: in vivo, human
Conditions: for bioavailability: dose increasing from 180 mg to 320 mg
Description: This pharmacokinetic (PK) study in healthy subjects was conducted to characterize and compare the PK parameters in plasma following a single intravenous (IV) dose of Elraglusib Injection, Elraglusib Oral Solution after fasting, and Elraglusib Oral Solution after a high-fat meal (fed). The study was intended to assess the potential feasibility of an oral formulation of elraglusib based on systemic exposure being within the biologically active range. In clinical studies conducted to date, elraglusib Injection (10 mg/mL) is administered IV once or twice per week over multiple hours, which requires a significant amount of time and resources by both patients and site personnel. […] See Example 3 above.
The route of administration is by IV infusion after diluting elraglusib for injection with 0.9% Sodium Chloride Injection.
It is a clear, red solution, free of visible particulate matter and a low bioburden liquid dosage form that is self-preserving against microbial growth.
Subjects received a single 3.3 mg/kg dose of each of the following in a randomly assigned order separated by a 2-week period.
During the study, the high fat meal was administered over a period of under 30 minutes (in almost all cases, 28 minutes).
Elraglusib Injection (10 mg/mL) administered as an IV infusion over 60 minutes (concentration in mg/mL and infusion rate in mL/kg/hour could vary depending on the subject's body weight).
PK parameters including AUC, Cmax, Tmax, and t1/2 were analyzed by standard non-compartmental analysis (NCA) methods following each of the elraglusib doses. Log transformed Cmax and AUC parameters in subjects having adequate PK data following at least 1 of the oral and IV doses were used to assess the relative bioavailability of the oral dose (fed and/or fasted) compared to the IV dose.
All efforts were made to obtain the PK samples at the scheduled nominal times relative to dosing. PK samples were assayed using validated analytical methods.

[1] = oral 3.3 mg/kg fasted state, human plasma
[2] = oral 3.3 mg/kg fed state, human plasma
[3] = oral fasted vs IV infusion, 3.3 mg/kg
[4] = oral fed vs IV infusion, 3.3 mg/kg
[5] = oral fed vs oral fasted, 3.3 mg/kg

Tmax (human, plasma, po, 3.3 mg/kg, oral 3.3 mg/kg fasted state, human plasma, read-out: Tmax Median): 2 h | half-life (human, plasma, po, 3.3 mg/kg, oral 3.3 mg/kg fasted state, human plasma, read-out: t1/2 Arithmetic Mean (converted)): 16.4 h | half-life (human, plasma, po, 3.3 mg/kg, oral 3.3 mg/kg fasted state, human plasma, read-out: t1/2 GMean (converted)): 15.6 h | half-life (human, plasma, po, 3.3 mg/kg, oral 3.3 mg/kg fasted state, human plasma, read-out: t1/2 Median (converted)): 18.2 h | AUC (human, plasma, po, 3.3 mg/kg, oral 3.3 mg/kg fed state, human plasma, read-out: AUC24 Arithmetic Mean): 3930 ng·h/mL | AUC (human, plasma, po, 3.3 mg/kg, oral 3.3 mg/kg fed state, human plasma, read-out: AUC24 GMean): 3420 ng·h/mL | AUC (human, plasma, po, 3.3 mg/kg, oral 3.3 mg/kg fed state, human plasma, read-out: AUC24 Median): 3990 ng·h/mL | AUC (human, plasma, po, 3.3 mg/kg, oral 3.3 mg/kg fed state, human plasma, read-out: AUC48 Arithmetic Mean): 4550 ng·h/mL | AUC (human, plasma, po, 3.3 mg/kg, oral 3.3 mg/kg fed state, human plasma, read-out: AUC48 GMean): 3980 ng·h/mL | AUC (human, plasma, po, 3.3 mg/kg, oral 3.3 mg/kg fed state, human plasma, read-out: AUC48 Median): 4440 ng·h/mL | AUC (human, plasma, po, 3.3 mg/kg, oral 3.3 mg/kg fed state, human plasma, read-out: AUC72 Arithmetic Mean): 4780 ng·h/mL | AUC (human, plasma, po, 3.3 mg/kg, oral 3.3 mg/kg fed state, human plasma, read-out: AUC72 GMean): 4160 ng·h/mL | AUC (human, plasma, po, 3.3 mg/kg, oral 3.3 mg/kg fed state, human plasma, read-out: AUC72 Median): 4600 ng·h/mL | AUC (human, plasma, po, 3.3 mg/kg, oral 3.3 mg/kg fed state, human plasma, read-out: AUC96 Arithmetic Mean): 4890 ng·h/mL | AUC (human, plasma, po, 3.3 mg/kg, oral 3.3 mg/kg fed state, human plasma, read-out: AUC96 GMean): 4250 ng·h/mL | AUC (human, plasma, po, 3.3 mg/kg, oral 3.3 mg/kg fed state, human plasma, read-out: AUC96 Median): 4730 ng·h/mL | AUC(0-t) (human, plasma, po, 3.3 mg/kg, oral 3.3 mg/kg fed state, human plasma, read-out: AUClast Arithmetic Mean): 4890 ng·h/mL | AUC(0-t) (human, plasma, po, 3.3 mg/kg, oral 3.3 mg/kg fed state, human plasma, read-out: AUClast GMean): 4250 ng·h/mL | AUC(0-t) (human, plasma, po, 3.3 mg/kg, oral 3.3 mg/kg fed state, human plasma, read-out: AUClast Median): 4730 ng·h/mL | AUC(0-inf) (human, plasma, po, 3.3 mg/kg, oral 3.3 mg/kg fed state, human plasma, read-out: AUC∞ Arithmetic Mean): 5000 ng·h/mL | AUC(0-inf) (human, plasma, po, 3.3 mg/kg, oral 3.3 mg/kg fed state, human plasma, read-out: AUC∞ GMean): 4330 ng·h/mL | AUC(0-inf) (human, plasma, po, 3.3 mg/kg, oral 3.3 mg/kg fed state, human plasma, read-out: AUC∞ Median): 5020 ng·h/mL | CL/F (human, plasma, po, 3.3 mg/kg, oral 3.3 mg/kg fed state, human plasma, read-out: CL/F Arithmetic Mean (converted)): 15.1 mL/min/kg | CL/F (human, plasma, po, 3.3 mg/kg, oral 3.3 mg/kg fed state, human plasma, read-out: CL/F GMean (converted)): 12.7 mL/min/kg | CL/F (human, plasma, po, 3.3 mg/kg, oral 3.3 mg/kg fed state, human plasma, read-out: CL/F Median (converted)): 11 mL/min/kg | Cmax (human, plasma, po, 3.3 mg/kg, oral 3.3 mg/kg fed state, human plasma, read-out: Cmax Arithmetic Mean): 592 ng/mL | Cmax (human, plasma, po, 3.3 mg/kg, oral 3.3 mg/kg fed state, human plasma, read-out: Cmax GMean): 474 ng/mL | Cmax (human, plasma, po, 3.3 mg/kg, oral 3.3 mg/kg fed state, human plasma, read-out: Cmax Median): 507 ng/mL | Tmax (human, plasma, po, 3.3 mg/kg, oral 3.3 mg/kg fed state, human plasma, read-out: Tmax Arithmetic Mean): 5.34 h | Tmax (human, plasma, po, 3.3 mg/kg, oral 3.3 mg/kg fed state, human plasma, read-out: Tmax GMean): 5.02 h | Tmax (human, plasma, po, 3.3 mg/kg, oral 3.3 mg/kg fed state, human plasma, read-out: Tmax Median): 5 h | Vd/F (human, plasma, po, 3.3 mg/kg, oral 3.3 mg/kg fed state, human plasma, read-out: Vz/F GMean): 20.9 L/kg and 1530 L | half-life (human, plasma, po, 3.3 mg/kg, oral 3.3 mg/kg fed state, human plasma, read-out: t1/2 Arithmetic Mean (converted)): 20.8 h | half-life (human, plasma, po, 3.3 mg/kg, oral 3.3 mg/kg fed state, human plasma, read-out: t1/2 GMean (converted)): 19 h | half-life (human, plasma, po, 3.3 mg/kg, oral 3.3 mg/kg fed state, human plasma, read-out: t1/2 Median (converted)): 21.2 h | AUC(0-t) (human, plasma, po, 3.3 mg/kg, oral 3.3 mg/kg, Fasted, read-out: AUClast LS Means): 1460 ng·h/mL | AUC(0-inf) (human, plasma, po, 3.3 mg/kg, oral 3.3 mg/kg, Fasted, read-out: AUC∞ LS Means): 1480 ng·h/mL | Cmax (human, plasma, po, 3.3 mg/kg, oral 3.3 mg/kg, Fasted, read-out: Cmax LS Means): 133 ng/mL | AUC(0-t) (human, plasma, po, 3.3 mg/kg, oral 3.3 mg/kg, Fed, read-out: AUClast LS Means): 4250 ng·h/mL | AUC(0-inf) (human, plasma, po, 3.3 mg/kg, oral 3.3 mg/kg, Fed, read-out: AUC∞ LS Means): 4330 ng·h/mL | Cmax (human, plasma, po, 3.3 mg/kg, oral 3.3 mg/kg, Fed, read-out: Cmax LS Means): 474 ng/mL | bioavailability (human, plasma, po, human, fasting, read-out: oral bioavailability, FAUC∞ based regression): 14 to 24% | bioavailability (human, plasma, po, human, fasting, read-out: oral bioavailability, FCmax based regression): 4 to 16% | bioavailability (human, plasma, po, human, fed state, read-out: oral bioavailability, FAUC∞ based regression): 41 to 71% | bioavailability (human, plasma, po, human, fed state, read-out: oral bioavailability, FCmax based regression): 16 to 52% | % extrap Arithmetic Mean [1]: 1.518% | % extrap GMean [1]: 1.219% | % extrap Median [1]: 1.45% | AUC∞/Dose Arithmetic Mean [1]: 7.224 ng·h/mL/mg | AUC∞/Dose GMean [1]: 6.128 ng·h/mL/mg | AUC∞/Dose Median [1]: 5.77 ng·h/mL/mg | Clast Arithmetic Mean [1]: 1.158 ng/mL | Clast GMean [1]: 0.8024 ng/mL | Clast Median [1]: 0.719 ng/mL | Cmax/Dose Arithmetic Mean [1]: 0.6705 ng/mL/mg | Cmax/Dose GMean [1]: 0.5482 ng/mL/mg | Cmax/Dose Median [1]: 0.622 ng/mL/mg | R^2 Arithmetic Mean [1]: 0.9926 # | R^2 GMean [1]: 0.9925 # | R^2 Median [1]: 0.9962 # | λZ Arithmetic Mean [1]: 0.04754 h⁻¹ | λZ GMean [1]: 0.04443 h⁻¹ | λZ Median [1]: 0.0381 h⁻¹ | % extrap Arithmetic Mean [2]: 1.865% | % extrap GMean [2]: 1.301% | % extrap Median [2]: 1.73% | AUC∞/Dose Arithmetic Mean [2]: 20.18 ng·h/mL/mg | AUC∞/Dose GMean [2]: 17.90 ng·h/mL/mg | AUC∞/Dose Median [2]: 19.2 ng·h/mL/mg | Clast Arithmetic Mean [2]: 3.055 ng/mL | Clast GMean [2]: 2.053 ng/mL | Clast Median [2]: 2.03 ng/mL | Cmax/Dose Arithmetic Mean [2]: 2.340 ng/mL/mg | Cmax/Dose GMean [2]: 1.958 ng/mL/mg | Cmax/Dose Median [2]: 2.11 ng/mL/mg | R^2 Arithmetic Mean [2]: 0.9928 # | R^2 GMean [2]: 0.9928 # | R^2 Median [2]: 0.9963 # | λZ Arithmetic Mean [2]: 0.04026 h⁻¹ | λZ GMean [2]: 0.03648 h⁻¹ | λZ Median [2]: 0.0327 h⁻¹ | Relative bioavailability, Ratio (%) Fasted/IV, AUClast [3]: 17.11% | Relative bioavailability, Ratio (%) Fasted/IV, AUC∞ [3]: 17.15% | Relative bioavailability, Ratio (%) Fasted/IV, Cmax [3]: 7.62% | Relative bioavailability, Ratio (%) Fed/IV, AUClast [4]: 50.75% | Relative bioavailability, Ratio (%) Fed/IV, AUC∞ [4]: 51.06% | Relative bioavailability, Ratio (%) Fed/IV, Cmax [4]: 27.24% | Relative bioavailability, Ratio (%) Fed/Fasted, AUClast [5]: 291.00% | Relative bioavailability, Ratio (%) Fed/Fasted, AUC∞ [5]: 292.05% | Relative bioavailability, Ratio (%) Fed/Fasted, Cmax [5]: 357.10% | concentration at 96 h (plasma, other: oral solution (fed and fasted) and IV infusion, 3.3 mg/kg, human, individual subjects, across treatments, read-out: quantifiable plasma concentrations at 96 hours post-dose): 0.273 to 7.18 ng/mL
Structure (SMILES): Cn1cc(C2=C(c3coc4ccc(F)cc34)C(=O)NC2=O)c2cc3c(cc21)OCO3 [elraglusib, 3-(5-fluorobenzofuran-3-yl)-4-(5-methyl-5H-[1,3]dioxolo[4,5-f]indol-7-yl)-1H-pyrrole-2,5-dione]

— US20250325517A1, “ORAL DOSAGE FORMS OF ELRAGLUSIB” (Actuate Therapeutics, Inc., priority 2022, published 2025)
